Source: patent US20250243196A1, “CITRON KINASE INHIBITORS” (The Cleveland Clinic Foundation, priority 2021, published 2025)

Legend:
Test in all cases: KinaseProfiler panel
Type in all cases: biochemical
Details in all cases: activity remaining
[1] = molecular target: JNK2α2(h) (Homo sapiens (Human), UniProt P45984); set-up: dose or concentration left out as unconfirmed
[2] = molecular target: NEK6(h) (Homo sapiens (Human), UniProt Q9HC98); set-up: dose or concentration left out as unconfirmed
[3] = molecular target: MRCKγ(h) (Homo sapiens (Human), UniProt Q6DT37); set-up: dose or concentration left out as unconfirmed
[4] = molecular target: CLK4(h) (Homo sapiens (Human), UniProt Q9HAZ1); set-up: dose or concentration left out as unconfirmed
[5] = molecular target: MAP4K3(h) (Homo sapiens (Human), UniProt Q8IVH8); set-up: dose or concentration left out as unconfirmed
[6] = molecular target: CaMKK1(h) (Homo sapiens (Human), UniProt Q8N5S9); set-up: dose or concentration left out as unconfirmed
[7] = molecular target: TLK2(h) (Homo sapiens (Human), UniProt Q86UE8)
[8] = molecular target: ALK4(h) (Homo sapiens (Human), UniProt P36896); set-up: dose or concentration left out as unconfirmed
ALK4(h), sequence (P36896 24-505): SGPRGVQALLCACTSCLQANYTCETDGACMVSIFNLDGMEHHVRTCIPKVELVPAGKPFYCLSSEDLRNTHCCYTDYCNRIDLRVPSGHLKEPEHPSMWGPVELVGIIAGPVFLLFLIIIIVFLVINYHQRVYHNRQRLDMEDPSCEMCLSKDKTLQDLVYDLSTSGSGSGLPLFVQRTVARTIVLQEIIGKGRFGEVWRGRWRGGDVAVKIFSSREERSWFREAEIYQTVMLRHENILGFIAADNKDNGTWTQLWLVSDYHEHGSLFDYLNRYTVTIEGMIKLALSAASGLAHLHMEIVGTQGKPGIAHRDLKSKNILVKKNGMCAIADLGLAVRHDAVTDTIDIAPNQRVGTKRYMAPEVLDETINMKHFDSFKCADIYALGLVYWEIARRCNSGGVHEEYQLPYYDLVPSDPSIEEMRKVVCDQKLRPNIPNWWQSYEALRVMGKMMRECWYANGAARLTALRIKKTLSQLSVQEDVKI

[9] = molecular target: TAO3(h) (Homo sapiens (Human), UniProt Q9H2K8); set-up: dose or concentration left out as unconfirmed
[10] = molecular target: EphB1(h) (Homo sapiens (Human), UniProt P54762); set-up: dose or concentration left out as unconfirmed
[11] = molecular target: LTK(h) (Homo sapiens (Human), UniProt P29376); set-up: dose or concentration left out as unconfirmed
LTK(h), sequence (P29376 17-864): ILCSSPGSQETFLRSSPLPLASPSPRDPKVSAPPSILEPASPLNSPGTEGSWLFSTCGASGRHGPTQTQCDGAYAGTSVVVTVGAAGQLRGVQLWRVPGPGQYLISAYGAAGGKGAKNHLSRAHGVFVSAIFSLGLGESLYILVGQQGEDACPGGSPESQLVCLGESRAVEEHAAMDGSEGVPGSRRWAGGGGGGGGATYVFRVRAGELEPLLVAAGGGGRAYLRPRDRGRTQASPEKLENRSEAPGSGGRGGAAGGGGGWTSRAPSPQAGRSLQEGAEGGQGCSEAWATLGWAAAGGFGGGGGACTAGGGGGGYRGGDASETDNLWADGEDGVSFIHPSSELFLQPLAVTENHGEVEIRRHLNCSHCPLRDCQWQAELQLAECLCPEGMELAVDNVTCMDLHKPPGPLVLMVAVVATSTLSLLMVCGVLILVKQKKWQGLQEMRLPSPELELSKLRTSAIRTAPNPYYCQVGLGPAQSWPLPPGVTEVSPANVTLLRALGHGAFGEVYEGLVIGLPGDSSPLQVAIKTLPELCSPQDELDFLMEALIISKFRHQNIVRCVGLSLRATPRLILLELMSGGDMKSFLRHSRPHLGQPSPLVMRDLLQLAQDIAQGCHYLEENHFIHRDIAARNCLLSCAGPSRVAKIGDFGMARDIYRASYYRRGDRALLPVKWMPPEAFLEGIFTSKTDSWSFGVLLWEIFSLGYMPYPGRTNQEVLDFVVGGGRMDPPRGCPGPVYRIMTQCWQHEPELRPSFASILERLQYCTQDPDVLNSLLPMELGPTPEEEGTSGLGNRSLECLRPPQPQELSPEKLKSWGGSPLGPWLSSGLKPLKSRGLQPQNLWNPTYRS

[12] = molecular target: IGF-1R(h) (Homo sapiens (Human), UniProt P08069); set-up: dose or concentration left out as unconfirmed
[13] = molecular target: SRMS(h) (Homo sapiens (Human), UniProt Q9H3Y6); set-up: dose or concentration left out as unconfirmed
[14] = molecular target: CDK5/p35(h) (Homo sapiens (Human), UniProt Q00535); set-up: dose or concentration left out as unconfirmed
[15] = molecular target: PKCα(h) (Homo sapiens (Human), UniProt P17252); set-up: dose or concentration left out as unconfirmed
[16] = molecular target: Fgr(h) (Homo sapiens (Human), UniProt P09769); set-up: dose or concentration left out as unconfirmed
[17] = molecular target: CaMKIIβ(h) (Homo sapiens (Human), UniProt Q13554); set-up: dose or concentration left out as unconfirmed
[18] = molecular target: Pim-2(h) (Homo sapiens (Human), UniProt Q9P1W9); set-up: dose or concentration left out as unconfirmed
[19] = molecular target: SRPK2(h) (Homo sapiens (Human), UniProt P78362); set-up: dose or concentration left out as unconfirmed
[20] = molecular target: PKCθ(h) (Homo sapiens (Human), UniProt Q04759); set-up: dose or concentration left out as unconfirmed
PKCθ(h), sequence (Q04759 whole entry): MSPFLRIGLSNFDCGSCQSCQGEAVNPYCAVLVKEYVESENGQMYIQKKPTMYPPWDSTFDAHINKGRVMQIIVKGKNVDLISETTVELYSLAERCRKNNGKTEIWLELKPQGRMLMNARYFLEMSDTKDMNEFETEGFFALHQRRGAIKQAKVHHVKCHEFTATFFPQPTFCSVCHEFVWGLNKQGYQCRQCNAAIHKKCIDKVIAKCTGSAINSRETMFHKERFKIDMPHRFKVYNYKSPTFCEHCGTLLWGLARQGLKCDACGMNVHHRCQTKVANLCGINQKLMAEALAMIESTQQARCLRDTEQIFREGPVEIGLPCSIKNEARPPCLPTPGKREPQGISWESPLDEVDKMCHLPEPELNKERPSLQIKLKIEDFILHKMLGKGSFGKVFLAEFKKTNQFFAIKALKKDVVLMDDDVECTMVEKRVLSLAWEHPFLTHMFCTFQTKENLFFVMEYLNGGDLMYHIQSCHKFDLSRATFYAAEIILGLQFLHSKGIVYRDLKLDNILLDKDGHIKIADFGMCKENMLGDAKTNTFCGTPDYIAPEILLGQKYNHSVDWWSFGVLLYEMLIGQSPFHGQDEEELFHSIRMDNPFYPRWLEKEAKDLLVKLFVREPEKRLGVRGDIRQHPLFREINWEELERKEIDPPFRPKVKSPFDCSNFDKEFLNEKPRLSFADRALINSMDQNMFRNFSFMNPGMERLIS

[21] = molecular target: ULK3(h) (Homo sapiens (Human), UniProt Q6PHR2); set-up: dose or concentration left out as unconfirmed
[22] = molecular target: PhKγ1(h) (Homo sapiens (Human), UniProt Q16816); set-up: dose or concentration left out as unconfirmed
PhKγ1(h), sequence (Q16816 whole entry): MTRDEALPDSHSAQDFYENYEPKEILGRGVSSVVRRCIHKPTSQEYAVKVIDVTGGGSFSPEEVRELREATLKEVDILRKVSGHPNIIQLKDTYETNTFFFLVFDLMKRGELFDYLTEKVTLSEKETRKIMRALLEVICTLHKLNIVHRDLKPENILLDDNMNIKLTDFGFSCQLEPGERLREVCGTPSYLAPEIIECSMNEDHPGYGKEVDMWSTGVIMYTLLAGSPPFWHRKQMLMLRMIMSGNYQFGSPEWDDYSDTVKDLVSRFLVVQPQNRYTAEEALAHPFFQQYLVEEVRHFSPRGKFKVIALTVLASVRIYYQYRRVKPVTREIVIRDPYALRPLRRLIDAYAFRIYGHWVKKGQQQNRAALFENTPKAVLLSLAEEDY

[23] = molecular target: CaMKIIγ(h) (Homo sapiens (Human), UniProt Q13555); set-up: dose or concentration left out as unconfirmed
CaMKIIγ(h), sequence (Q13555 whole entry): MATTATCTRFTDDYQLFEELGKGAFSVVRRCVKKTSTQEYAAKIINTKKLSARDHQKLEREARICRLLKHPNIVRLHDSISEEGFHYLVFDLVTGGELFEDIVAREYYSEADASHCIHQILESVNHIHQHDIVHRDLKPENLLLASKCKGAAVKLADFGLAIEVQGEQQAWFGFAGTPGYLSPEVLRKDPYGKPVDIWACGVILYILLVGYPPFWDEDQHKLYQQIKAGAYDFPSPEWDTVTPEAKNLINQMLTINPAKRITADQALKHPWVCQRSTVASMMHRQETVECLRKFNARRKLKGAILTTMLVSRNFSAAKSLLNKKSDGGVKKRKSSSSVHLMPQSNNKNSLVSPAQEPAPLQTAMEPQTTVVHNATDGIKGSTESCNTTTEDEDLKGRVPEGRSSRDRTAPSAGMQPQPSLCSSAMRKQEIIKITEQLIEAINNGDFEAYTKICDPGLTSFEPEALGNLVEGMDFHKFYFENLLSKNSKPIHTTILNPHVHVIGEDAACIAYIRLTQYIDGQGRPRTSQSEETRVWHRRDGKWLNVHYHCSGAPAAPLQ

[24] = molecular target: PI3 Kinase (p110d/p85a)(h) (Homo sapiens (Human), UniProt O00329); set-up: dose or concentration left out as unconfirmed
[25] = molecular target: PKR(h) (Homo sapiens (Human), UniProt P19525); set-up: dose or concentration left out as unconfirmed
[26] = molecular target: PAK5(h) (Homo sapiens (Human), UniProt Q9P286); set-up: dose or concentration left out as unconfirmed
[27] = molecular target: KDR(h) (Homo sapiens (Human), UniProt P35968); set-up: dose or concentration left out as unconfirmed
[28] = molecular target: DYRK2(h) (Homo sapiens (Human), UniProt Q92630); set-up: dose or concentration left out as unconfirmed
DYRK2(h), sequence (Q92630 whole entry): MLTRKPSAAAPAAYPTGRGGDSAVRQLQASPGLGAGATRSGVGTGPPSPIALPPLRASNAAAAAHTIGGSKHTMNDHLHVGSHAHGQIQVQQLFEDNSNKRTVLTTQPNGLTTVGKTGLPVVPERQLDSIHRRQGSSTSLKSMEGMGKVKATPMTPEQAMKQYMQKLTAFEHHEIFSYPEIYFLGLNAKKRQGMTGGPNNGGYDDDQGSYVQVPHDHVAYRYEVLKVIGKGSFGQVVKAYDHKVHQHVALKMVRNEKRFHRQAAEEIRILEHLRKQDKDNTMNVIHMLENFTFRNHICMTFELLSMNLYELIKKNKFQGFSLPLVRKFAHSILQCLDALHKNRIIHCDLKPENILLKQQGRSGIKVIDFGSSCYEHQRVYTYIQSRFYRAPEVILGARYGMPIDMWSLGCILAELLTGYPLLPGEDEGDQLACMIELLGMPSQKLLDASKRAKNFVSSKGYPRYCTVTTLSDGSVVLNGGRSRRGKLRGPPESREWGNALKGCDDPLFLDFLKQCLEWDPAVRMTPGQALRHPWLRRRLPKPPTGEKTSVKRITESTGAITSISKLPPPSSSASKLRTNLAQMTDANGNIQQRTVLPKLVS

[29] = molecular target: ErbB4(h) (Homo sapiens (Human), UniProt Q15303); set-up: dose or concentration left out as unconfirmed
ErbB4(h), sequence (Q15303 26-1308): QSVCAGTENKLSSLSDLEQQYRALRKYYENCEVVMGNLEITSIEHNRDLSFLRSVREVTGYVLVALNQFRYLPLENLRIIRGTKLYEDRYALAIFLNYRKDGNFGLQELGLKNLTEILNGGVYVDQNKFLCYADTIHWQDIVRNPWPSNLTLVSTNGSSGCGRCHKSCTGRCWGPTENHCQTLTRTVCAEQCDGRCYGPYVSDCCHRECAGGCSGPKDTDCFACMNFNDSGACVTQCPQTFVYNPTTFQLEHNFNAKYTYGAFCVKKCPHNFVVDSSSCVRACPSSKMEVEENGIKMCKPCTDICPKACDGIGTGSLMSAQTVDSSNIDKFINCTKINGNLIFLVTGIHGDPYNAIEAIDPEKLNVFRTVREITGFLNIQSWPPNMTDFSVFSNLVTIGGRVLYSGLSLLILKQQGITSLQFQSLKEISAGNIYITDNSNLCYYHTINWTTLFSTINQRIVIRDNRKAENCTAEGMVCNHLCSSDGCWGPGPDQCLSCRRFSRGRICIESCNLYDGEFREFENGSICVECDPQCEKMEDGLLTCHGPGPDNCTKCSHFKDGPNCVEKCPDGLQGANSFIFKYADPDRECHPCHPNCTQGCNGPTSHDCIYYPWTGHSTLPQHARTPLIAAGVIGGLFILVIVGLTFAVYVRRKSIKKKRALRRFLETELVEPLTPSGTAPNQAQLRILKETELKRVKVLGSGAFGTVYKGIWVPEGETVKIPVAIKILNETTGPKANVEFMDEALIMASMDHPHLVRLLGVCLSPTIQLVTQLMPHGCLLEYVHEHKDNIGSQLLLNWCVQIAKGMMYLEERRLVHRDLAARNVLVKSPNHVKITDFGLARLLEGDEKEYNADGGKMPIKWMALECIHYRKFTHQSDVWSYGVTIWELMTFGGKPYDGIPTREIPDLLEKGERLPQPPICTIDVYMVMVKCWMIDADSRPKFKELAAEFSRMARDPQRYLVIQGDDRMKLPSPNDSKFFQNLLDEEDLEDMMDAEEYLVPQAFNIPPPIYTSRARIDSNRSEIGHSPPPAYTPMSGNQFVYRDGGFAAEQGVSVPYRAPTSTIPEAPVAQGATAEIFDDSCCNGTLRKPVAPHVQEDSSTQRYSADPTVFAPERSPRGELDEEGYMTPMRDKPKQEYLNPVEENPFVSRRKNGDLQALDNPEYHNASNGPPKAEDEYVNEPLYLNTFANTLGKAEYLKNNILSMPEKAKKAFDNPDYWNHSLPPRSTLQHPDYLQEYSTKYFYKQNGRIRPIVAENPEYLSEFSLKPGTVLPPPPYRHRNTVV

[30] = molecular target: Fms(h) (Homo sapiens (Human), UniProt P07333); set-up: dose or concentration left out as unconfirmed
[31] = molecular target: CK1γ3(h) (Homo sapiens (Human), UniProt Q9Y6M4); set-up: dose or concentration left out as unconfirmed
[32] = molecular target: SGK2(h) (Homo sapiens (Human), UniProt Q9HBY8); set-up: dose or concentration left out as unconfirmed

SMILES: Cc1cc2c(-c3ccc(NC(=O)[C@H](N)CC(C)(C)C)cc3C)ccnc2[nH]1 [Compound F-90, (2R)-2-Amino-4,4-dimethyl-N-[3-methyl-4-(2-methyl-1H-pyrrolo[2,3-b]pyridin-4-yl)phenyl]pentanamide]
- % Activity [1]: 99%
- % Activity [2]: 86%
- % Activity [3]: 98%
- % Activity [4]: 85%
- % Activity [5]: 109%
- % Activity [6]: 89%
- % Activity [7]: 92%
- % Activity [8]: 94%
- % Activity [9]: 100%
- % Activity [10]: 83%
- % Activity [11]: 97%
- % Activity [12]: 98%
- % Activity [13]: 86%
- % Activity [14]: 79%
- % Activity [15]: 92%
- % Activity [16]: 97%
- % Activity [17]: 93%
- % Activity [18]: 117%
- % Activity [19]: 93%
- % Activity [20]: 103%
- % Activity [21]: 95%
- % Activity [22]: 101%
- % Activity [23]: 106%
- % Activity [24]: 110%
- % Activity [25]: 85%
- % Activity [26]: 87%
- % Activity [27]: 78%
- % Activity [28]: 101%
- % Activity [29]: 94%
- % Activity [30]: 115%
- % Activity [31]: 84%
- % Activity [32]: 82%
